This is an account of results in patent publication US20260356846A1, “STATIN DERIVATIVES AND METHODS OF USING THE SAME” (The General Hospital Corporation, priority 2023, published 2026).

SMILES strings stand for the structures. Read-outs that look alike come from different tables or passages of the source. Some results are limits rather than exact numbers.

For data set [1], the system named is STMN2 (WT STMN2-NLuc SH-SY5Y cells). The experiment in a line: STMN2 nanoluciferase assay in WT SH-SY5Y cells (Table A: WT TDP-32; Table B: WT HD Luciferase). Format: cell-based, human. To be noted: WT cell line. As to the method: (§1) Neuroblastoma cells (ATCC) were cultured in DMEM/F12 (Gibco) supplemented with 10% fetal-bovine serum (Omega) and 1% penicillin-streptomycin (Gibco) at 37 °C with 5% CO2. For knockdown experiments, cells were transfected with SMARTpool ON-TARGETplus siRNA or control siRNA pool (D001810-10) (GE Dharmacon) at a final concentration of 50 nM, for 96 h in two doses (0, 24 h), after complexing with Lipofectamin RNAiMAX (Invitrogen) in Opti-MEM (Gibco) for 10 min.
(§2) WT and TDP-mut (N352S) SH-SY5Y cells were edited using CRISPR-Cas9 to express Nanoluciferase at the C-terminus of both endogenous STMN2 alleles. A single guided RNA targeting STMN2 C-terminus was designed (Benchling webtool) and cloned into pSpCas9-2A-green fluorescent protein (GFP) plasmid (px458-Addgene) using the BbsI restriction site. The sequence for guided RNA targeting STMN2 was: […]. For the repair template, overlapping fragments of 800 bp STMN2 homology arms flanking Nanoluciferase (NLuc, Promega) were generated and ligated into pUC57 backbone. A 42 bp GS-linker was also included 5′ to NLuc to prevent steric hindrance of the reporter to the final STMN2 exon. Fragments were ligated using Gibson Assembly and nucleofected simultaneously with pSpCas9-2A-GFP-gRNA plasmid using the Amaxa Nucleofector (assay A-023). Forty-eight hours following electroporation, cells were collected, and GFP-positive cells sorted and single-cell seeded into 96-well plates using the SH800S Sony cell sorter. Individual clones were expanded and DNA was extracted for PCR amplification of the STMN2 Ex5 genomic locus using primers within NLuc and outside the STMN2 5′ homology arm to confirm presence of the insert. The entire STMN2 coding region and all exon-intron junctions (>500-bp length of each intronic region) were then sequenced to verify the absence of any additional DNA alteration. qPCR analysis was performed with a wild-type isogenic SH-SY5Y cell line that had undergone the mutagenesis attempt but not acquired the insertion mutation during the original screening process.
(§3) TDP-mut STMN2-NLuc SH-SY5Y cells were used in small-molecule screening at ICCB-Longwood. 3000 cells/well were plated in white 384-well plates using a 50 ul sample volume. 24 hours after plating, compounds were added using 100 nl pin transfer. 24 hours later, 25 ul NLuc assay was added to each well according to manufacturer instructions (Promega, Cat #). Plates were shaken for 1 min prior to luminescence readings using EnVision2 machine. DMSO-only and WT STMN2-NLuc cells were included as negative and positive controls respectively on each plate, producing an average Z′score of ~0.7 across the screen. Each library plate was conducted in duplicate, and Z-scores calculated for each compound. For subsequent validation experiments, cell numbers in each well were quantified by hoescht staining at 1 μg/ml for 15 mins at 37C in black, clear bottom plates, prior to imaging at 4× using automated microscopy (ImageXpressMicro). Nuclei were then counted using a custom algorithm, and luciferase assay run as above. Luminescence results were then normalised against cell counts as RLU/cell.
(§4) Each compound was tested in triplicate in log doses ranging 0.01 μM−10 μM. The values are represented in luminescence normalized to the number of cells in the well, wherein darker grey correlates to higher RLU per cell and higher STMN2 protein expression.

Data set [2] deals with STMN2 (TDP-mut (N352S) STMN2-NLuc SH-SY5Y cells). Description: STMN2 nanoluciferase assay in TDP-43 mutant SH-SY5Y cells (Table A: mut TDP-43; Table B: mut HD Luciferase). Format: cell-based, human. The conditions noted are these: mutant TDP-43 cell line. Here is the method:
as §1, §2, §3, §4

Setting [3] is: Homo sapiens, SH-SY5Y, Table A, read-out: EC50, WT TDP-32.
Where [4] appears, read: Homo sapiens, SH-SY5Y, Table B, Emax.
[5] abbreviates: Homo sapiens, SH-SY5Y, Table B, read-out: EC50, WT HD Luciferase.
[6] abbreviates: Homo sapiens, SH-SY5Y, Table A, read-out: EC50, mut TDP-43.
Where [7] appears, read: Homo sapiens, SH-SY5Y, Table B, read-out: EC50, mut HD Luciferase.
The mark [8] stands for this setting: Table B, read-out: EC50, WT HD Luciferase.
Setting [9] is: Table B, read-out: EC50, mut HD Luciferase.

What is called EC50 is the concentration needed to bring the measured effect to its halfway point. The term maximal fold induction denotes the signal under treatment as a multiple of the control signal. Read a high maximal fold induction as a strong induction. For the compound `O=C(O)C[C@H](O)C[C@H](O)/C=C/c1c(C2CC2)cc2scnc2c1-c1ccc(F)cc1` [Example I-9, (3R,5S,E)-7-(6-cyclopropyl-4-(4-fluorophenyl)benzo[d]thiazol-5-yl)-3,5-dihydroxyhept-6-enoic acid], the EC50 in data set [1] (setting [3]) was at least 10000 nM; in data set [1] (setting [5]) it was at least 500 nM; in data set [2] (setting [6]) it was 5000 to 10000 nM; in data set [2] (setting [7]), at least 500 nM. The compound further registered a maximal fold induction in data set [1] (setting [4]) of 1 to 1.25. In data set [2] (Table B), the “HD Luciferase (mut, Emax)” value was “* (means≥1 and <1.25)”.
On to `COCc1c(C2CC2)nc(C2CC2)c(/C=C/[C@@H](O)C[C@@H](O)CC(=O)O)c1-c1ccccc1Cl` [II-25, (3R,5S,E)-7-(4-(2-chlorophenyl)-2,6-dicyclopropyl-5-(methoxymethyl)pyridin-3-yl)-3,5-dihydroxyhept-6-enoic acid], for which the EC50 in data set [1] (setting [5]) and in data set [2] (setting [7]) was 10 to 50 nM each time.
For the compound `COCc1c(C(C)C)nc(C(C)C)c(/C=C/[C@@H](O)C[C@@H](O)CC(=O)O)c1-c1ccc(F)cc1` [Cerivastatin, cerivastatin, reference compound], the EC50 in data set [1] (setting [3]) was 100 to 500 nM; in data set [2] (setting [6]), at most 100 nM.
Consider `Cc1cc2c(-c3ccc(F)cc3)c(/C=C/[C@@H](O)C[C@@H](O)CC(=O)O)c(C3CC3)nc2s1` [Example I-5c, (3R,5S,E)-7-(6-cyclopropyl-4-(4-fluorophenyl)-2-methylthieno[2,3-b]pyridin-5-yl)-3,5-dihydroxyhept-6-enoic acid], for which, in data set [1] (Table B, Emax), the “HD Luciferase (WT, Emax)” value is “** (means≥1.25 and <1.5)”. Moreover, the EC50 in data set [1] (setting [8]) and in data set [2] (setting [9]) was 100 to 500 nM throughout.
With `COCc1c(C2CC2)nc(C2CC2)c(/C=C/[C@@H](O)C[C@@H](O)CC(=O)O)c1-c1cc(F)ccc1Cl` [II-13, (3R,5S,E)-7-(4-(2-chloro-5-fluorophenyl)-2,6-dicyclopropyl-5-(methoxymethyl)pyridin-3-yl)-3,5-dihydroxyhept-6-enoic acid], the EC50 in data set [1] (setting [5]) and in data set [2] (setting [7]) was 10 to 50 nM each time.
For the compound `Cc1nc2c(-c3ccc(F)cc3)c(/C=C/[C@@H](O)C[C@@H](O)CC(=O)O)c(C3CC3)nc2s1` [Example I-3, (3R,5S,E)-7-(5-cyclopropyl-7-(4-fluorophenyl)-2-methylthiazolo[5,4-b]pyridin-6-yl)-3,5-dihydroxyhept-6-enoic acid], the EC50 in data set [1] (setting [3]) is at least 10000 nM; in data set [1] (setting [5]) it was at least 500 nM; in data set [2] (setting [6]), 5000 to 10000 nM; in data set [2] (setting [7]), at least 500 nM. This compound also displayed a maximal fold induction in data set [1] (setting [4]) of 1 to 1.25. Also, in data set [2] (Table B), the “HD Luciferase (mut, Emax)” value is “* (means≥1 and <1.25)”.
As to `COCc1c(C2CCC2)nc(C2CCC2)c(/C=C/[C@@H](O)C[C@@H](O)CC(=O)O)c1-c1ccc(F)cc1Cl` [II-3, (3R,5S,E)-7-(4-(2-chloro-4-fluorophenyl)-2,6-dicyclobutyl-5-(methoxymethyl)pyridin-3-yl)-3,5-dihydroxyhept-6-enoic acid], the concentration for a half-maximal effect (EC50) in data set [1] (setting [3]) is 500 to 1000 nM; in data set [1] (setting [5]), 100 to 500 nM; in data set [2] (setting [6]) it was 500 to 1000 nM; in data set [2] (setting [7]) it was 100 to 500 nM. In data set [1] (setting [4]), this compound registered a maximal fold induction of 1.25 to 1.5. For the same compound, the “HD Luciferase (mut, Emax)” value in data set [2] (Table B) was “** (means≥1.25 and <1.5)”.
`Cc1cc(F)ccc1-c1cc(C23CC(C2)C3)nc(C2CC2)c1/C=C/[C@@H](O)C[C@@H](O)CC(=O)O` [II-14, (3R,5S,E)-7-(6-(bicyclo[1.1.1]pentan-1-yl)-2-cyclopropyl-4-(4-fluoro-2-methylphenyl)pyridin-3-yl)-3,5-dihydroxyhept-6-enoic acid]: the EC50 in data set [1] (setting [5]) and in data set [2] (setting [7]) was 100 to 500 nM in each case.
Regarding `Cc1cc2c(-c3ccc(F)cc3)c(/C=C/[C@@H](O)C[C@@H](O)CC(=O)O)c(C3CC3)nc2s1` [Example I-5a, (3R,5S,E)-7-(6-cyclopropyl-4-(4-fluorophenyl)-2-methylthieno[2,3-b]pyridin-5-yl)-3,5-dihydroxyhept-6-enoic acid], the maximal fold induction in data set [1] (setting [4]) was 1 to 1.25. Also, the EC50 in data set [1] (setting [8]) and in data set [2] (setting [9]) was at least 500 nM throughout. For the same compound, the “HD Luciferase (mut, Emax)” value in data set [2] (Table B) was “* (means≥1 and <1.25)”.
